Data: ChEMBL document CHEMBL1201862, “PubChem BioAssay data set” (2004)
Calls of active or inactive are those of the source.

Key:
[1] = biological target: RNA-editing ligase 1, mitochondrial (Trypanosoma brucei brucei, UniProt P86926); assay: inhibition of trypanosome RNA editing ligase – biochemical, fluorescence, Trypanosoma brucei, dose response (AID 1117295); format: functional
[2] = biological target: T1, Low molecular weight phosphotyrosine protein phosphatase (Homo sapiens, UniProt P24666); assay: inhibition of LMPTP-A enzymatic activity – biochemical, OMFP substrate, fluorescence intensity, set 2, dose response (AID 743307); format: functional
T1 sequence (P24666 whole entry): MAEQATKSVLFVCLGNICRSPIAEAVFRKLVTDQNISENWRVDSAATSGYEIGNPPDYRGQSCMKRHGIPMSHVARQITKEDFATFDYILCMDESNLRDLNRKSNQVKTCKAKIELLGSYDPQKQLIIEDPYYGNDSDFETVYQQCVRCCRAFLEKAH

[3] = biological target: T1, Low molecular weight phosphotyrosine protein phosphatase; assay: inhibition of human LMPTP enzyme activity – biochemical, absorbance, pNPP substrate, LMPTP-A isoform, set 2, orthogonal assay, dose response (AID 743308); format: functional
[4] = biological target: NAD-dependent protein deacylase sirtuin-5, mitochondrial (Homo sapiens, UniProt Q9NXA8); assay: sirtuin-5 deacylation blockers, concentration series – biochemical, fluorescence imaging, cherry-pick, set 5, dose response (AID 720591);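 further: desuccinylation of succinyl peptide AMC substrate read as fluorescence after trypsin release; potency of inhibitors that lower fluorescence and may act on trypsin instead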
[5] = antimalarial activity against Dd2 parasites – SYBR Green fluorescence, erythrocytes, dry powder, set 2, dose response (AID 1159574); format: functional, cell-based
[6] = viability loss in A549 lung cells – cell-based, 24 h, CellTiter-Glo luminescence, cherry-picks, cytotoxicity control, dose response (AID 1053115); format: functional; conditions: A549, 24 h
[7] = P. falciparum Dd2 growth inhibitors, dose response, SYBR Green, cherry-picked samples (AID 1159567); format: functional, cell-based
[8] = toxicity to human hepatoma HepG2 cells – cell-based, cherry-picked samples, cytotoxicity control, dose response (AID 1159577); format: functional
[9] = biological target: T2, Methionyl-tRNA synthetase, putative (Trypanosoma brucei brucei, UniProt Q38C91); format: functional, Trypanosoma brucei brucei strain 927/4 GUTat10.1
T2 sequence (Q38C91 whole entry): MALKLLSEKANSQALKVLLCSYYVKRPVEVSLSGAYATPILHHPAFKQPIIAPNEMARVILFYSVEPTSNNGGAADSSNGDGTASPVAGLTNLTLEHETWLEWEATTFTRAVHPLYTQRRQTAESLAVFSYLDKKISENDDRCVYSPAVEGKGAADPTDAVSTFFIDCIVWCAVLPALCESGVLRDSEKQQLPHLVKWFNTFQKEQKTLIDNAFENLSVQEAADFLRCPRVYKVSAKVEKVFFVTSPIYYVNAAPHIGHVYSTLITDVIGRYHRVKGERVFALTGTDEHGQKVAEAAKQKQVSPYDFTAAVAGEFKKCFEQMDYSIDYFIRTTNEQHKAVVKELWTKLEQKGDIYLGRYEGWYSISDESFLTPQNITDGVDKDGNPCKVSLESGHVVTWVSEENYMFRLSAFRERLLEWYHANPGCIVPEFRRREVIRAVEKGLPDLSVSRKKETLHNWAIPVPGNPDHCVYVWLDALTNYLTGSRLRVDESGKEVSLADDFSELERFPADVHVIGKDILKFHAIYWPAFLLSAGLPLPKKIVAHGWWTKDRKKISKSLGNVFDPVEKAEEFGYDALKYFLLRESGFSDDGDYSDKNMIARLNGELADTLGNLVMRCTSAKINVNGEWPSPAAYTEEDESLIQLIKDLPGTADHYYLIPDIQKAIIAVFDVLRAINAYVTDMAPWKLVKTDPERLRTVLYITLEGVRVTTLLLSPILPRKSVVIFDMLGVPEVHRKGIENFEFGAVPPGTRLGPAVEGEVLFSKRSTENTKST

[10] = Counterscreen for inhibitors of Trypanosoma brucei methionyl tRNA synthetase (MetRS): Luminescence-based cell-based high throughput dose response assay to identify compounds that are cytotoxic to Jurkat human T lymphocyte cells.; format: functional
[11] = biological target: T2, Methionyl-tRNA synthetase, putative; format: functional, Trypanosoma brucei brucei strain 927/4 GUTat10.1; remark: listed apart in the source
[12] = Late stage counterscreen for inhibitors of Trypanosoma brucei methionyl tRNA synthetase (MetRS): Luminescence-based cell-based high throughput dose response assay to identify compounds that are cytotoxic to Jurkat human T lymphocyte cells.; format: functional
[13] = Luminescence Cell-Based Dose Confirmation HTS to Identify Activators of 5'UTR Stem-Loop Driven Alpha-Synuclein mRNA Translation in H4 Neuroglioblastoma Cells. [Related pubchem assays: 1829 (Project Summary), 1814 (Primary HTS)]; format: functional
[14] = Luminescence Cell-Based Dose Response HTS to Identify Activators of Luciferase Translation or Activity in H4 […] Cells. [Related pubchem assays: 1829 (Project Summary), 1814 (Primary HTS)]; format: functional
H4 = assay: Luminescence Cell-Based Dose Response HTS to Identify Activators of 5'UTR Stem-Loop Driven Prion Protein mRNA Translation in H4 Neuroglioblastoma Cells. [Related pubchem assays: 1829 (Project Summary), 1814 (Primary HTS)]; format: functional; conditions: Homo sapiens
Transthyretin = Transthyretin (Homo sapiens, UniProt P02766); assay: Luminescence-based cell-based high throughput dose response assay to identify activators of Transthyretin (TTR) transcription.; format: functional
[15] = biological target: T3, Oxysterols receptor LXR-beta (Homo sapiens, UniProt P55055); format: functional, cell-based;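 further: Cell-based luminescence dose-response assay of agonist activity at LXR, run as a confirmatory counterscreen to a daf-12 agonist screen; HEK293 cells with Gal4-LXR fusion and GAL4-driven luciferase reporter; agonist potency from rising luciferase signal of a Gal4-LXR reporter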
T3 sequence (P55055 whole entry): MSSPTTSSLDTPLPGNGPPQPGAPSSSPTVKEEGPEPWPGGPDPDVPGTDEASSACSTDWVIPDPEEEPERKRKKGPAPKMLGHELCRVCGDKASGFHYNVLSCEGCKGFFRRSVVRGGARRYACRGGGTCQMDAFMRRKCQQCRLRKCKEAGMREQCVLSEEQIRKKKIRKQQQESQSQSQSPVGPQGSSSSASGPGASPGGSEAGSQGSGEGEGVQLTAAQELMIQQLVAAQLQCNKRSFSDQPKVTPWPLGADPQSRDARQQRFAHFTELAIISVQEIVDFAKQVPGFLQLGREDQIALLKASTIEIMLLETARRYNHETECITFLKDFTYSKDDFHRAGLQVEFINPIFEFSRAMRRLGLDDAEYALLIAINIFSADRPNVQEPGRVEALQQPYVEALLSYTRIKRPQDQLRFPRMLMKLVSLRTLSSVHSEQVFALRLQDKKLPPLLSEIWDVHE

Sequence of NAD-dependent protein deacylase sirtuin-5, mitochondrial (Q9NXA8 whole entry): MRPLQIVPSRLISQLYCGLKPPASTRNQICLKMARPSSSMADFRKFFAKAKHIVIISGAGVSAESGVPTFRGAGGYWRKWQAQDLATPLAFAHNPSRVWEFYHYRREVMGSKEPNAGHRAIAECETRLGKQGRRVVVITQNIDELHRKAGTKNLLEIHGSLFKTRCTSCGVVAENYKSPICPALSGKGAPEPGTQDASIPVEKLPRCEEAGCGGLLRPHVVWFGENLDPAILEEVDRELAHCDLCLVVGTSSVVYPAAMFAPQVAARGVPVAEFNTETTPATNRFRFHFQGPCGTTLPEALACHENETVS
Sequence of RNA-editing ligase 1, mitochondrial (P86926 whole entry): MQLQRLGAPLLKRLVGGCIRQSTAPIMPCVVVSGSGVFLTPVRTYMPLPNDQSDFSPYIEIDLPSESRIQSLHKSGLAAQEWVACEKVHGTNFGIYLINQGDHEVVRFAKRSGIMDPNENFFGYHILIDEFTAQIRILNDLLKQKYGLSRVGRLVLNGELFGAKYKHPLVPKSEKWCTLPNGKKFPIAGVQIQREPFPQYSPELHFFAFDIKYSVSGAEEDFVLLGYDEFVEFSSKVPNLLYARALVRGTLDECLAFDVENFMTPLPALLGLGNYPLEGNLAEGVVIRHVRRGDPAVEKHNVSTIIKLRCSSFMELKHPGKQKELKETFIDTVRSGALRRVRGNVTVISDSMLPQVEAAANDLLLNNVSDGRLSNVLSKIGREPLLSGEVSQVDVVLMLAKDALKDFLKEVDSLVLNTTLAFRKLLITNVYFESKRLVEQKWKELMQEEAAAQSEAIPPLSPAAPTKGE

## COC(=O)C1=C(C)N(Cc2ccccc2C(F)(F)F)C(NCc2ccc(OC)cc2)=NC1c1ccccc1 (stereo not drawn)
[1]
  IC50: > 96.6 µM (inactive)

## Fc1cccc(-c2cc(NCCCN3CCCCC3)c3ccccc3n2)c1
[2]
  IC50: 1.84 µM (active)
[3]
  IC50: 4 µM (active)

## O=C(O)CCNC(=O)c1ccc(NC(=O)Cc2ccc(Cl)cc2)cc1
[4]
  AC50: 18.8 µM (active)

## COc1ccc(S(=O)(=O)N(C)C[C@@H]2OCc3ccccc3-c3c(n(C)c4ccccc34)C(=O)N([C@@H](C)CO)C[C@H]2C)cc1
[5]
  AC50: 2.27 µM (active)

## OC[C@@H]1Nc2ccc(-c3cccc(F)c3)cc2[C@@H]2[C@H]1CCN2Cc1ccc(F)cc1
[6]
  AC50: 52 µM (active)
[7]
  AC50: 5.68 µM (active)
[8]
  AC50: 17.8 µM (active)

## CC(C)(C)[C@H]1C=C(C(=O)NCc2nc3ccccc3[nH]2)O[C@@H](OCc2ccc(CO)cc2)C1
[9]
  IC50: 3.78 µM (active)
[10]
  IC50: 44.2 µM (inactive)
[11]
  IC50: 1.99 µM (active)
[12]
  IC50: 77 µM (inactive)

## COc1cccc(-c2csc(NC(=O)C3CC3)n2)c1
[13]
  EC50: 94 µM (active)
[14]
  EC50: 33.5 µM (active)
H4
  EC50: > 120 µM (not active)
Transthyretin
  EC50: > 167 µM (inactive)

## COc1cccc(-c2nc3n(n2)CCc2ccccc2-3)c1
[15]
  EC50: > 67.5 µM (inactive)
cells
  EC50: > 67.5 µM (inactive)
